Consider 21 compounds from US20120258960A1, “NOVEL MULTIFUNCTIONAL PEPTIDASE INHIBITORS, ESPECIALLY FOR MEDICAL USE” (IMTM GMBH, priority 2009, published 2012).

Assay [1] concerns human peripheral blood mononuclear cells. Nature of the assay: Inhibition of proliferation of PHA-stimulated mononuclear cells (BrdU incorporation). As to conditions: PBMC, 1 μg/ml Phytohemagglutinine, 48 hours, test compounds 0.1-250 μM, read-out: MNC IC50. The class given is cell-based. As to the method: (§1) Peripheral blood mononuclear cells (PBMC) from healthy human volunteers were freshly isolated by density gradient centrifugation. T lymphocytes (T cells, Tc) were isolated from PBMC fractions via nylon wool adherence. Cells were cultured in standard cell culture media and stimulated by addition of 1 μg/ml Phytohemagglutinine for 48 hours in 96 well flat-bottom microtitre plates. Test compounds were added at concentration ranges from 0.1-250 μM over the total assay period.
DNA synthesis of proliferating PBMC was assessed by incorporation of nucleotide analogue bromdesoxyuridine (BrdU) and subsequent detection of optical density (OD) at 450 nm.
(§2) Data output was based on raw data and calculation of relative proliferation response in relation to PHA-activated T cells in the absence of test compound (100% control).
(§3) The […] value of proliferation suppression was assessed by graphical evaluation.
(In general: Uptake of a labelled nucleoside into DNA is a usual measure of proliferation.)

The test system of a further assay is T lymphocytes. The assay is described as follows: Inhibition of proliferation of PHA-stimulated T lymphocytes (tritium thymidine incorporation). As to conditions: Homo sapiens, T-lymphocyte, 1 μg/ml Phytohemagglutinine, 48 hours, test compounds 0.1-250 μM, read-out: T cells IC50. The class given is cell-based. Here is the method:
as §1
DNA synthesis of proliferating T cells was determined by incorporation of radio labelled tritium thymidine and subsequent radio detection.
as §2, §3

The subject of a further assay is Sprague-Dawley rats. The assay is described as follows: Infarct volume after transient focal cerebral ischemia (endothelin 1-induced middle cerebral artery occlusion, eMCAO). In kind it is in vivo. The conditions noted are these: cortex, 7 days after eMCAO, % of vehicle control (100%), mean ± S.E.M.; 2 μl of 10 mmol/l intracerebroventricularly during ischemia, 6 and 24 h after reperfusion. As to the method: Studies were performed on male Sprague-Dawley rats (250 to 280 g) obtained from Harlan Winkelmann (Borchen, Germany). The animals were maintained under constant environmental conditions with ambient temperature of 21±2° C. and relative humidity of 40%. They were housed with a 12-h light-dark cycle and given food and water ad libitum.
For stock solution of the compounds, a compound determined for use in the study (25 mmol) was dissolved in dimethyl sulfoxide (DMSO, SigmaAldrich, Germany) and diluted with 0.1 M phosphate buffer saline (PBS, pH 7.4) to a final volume of 10 mmol/l. 2 μl of a 10 mmol/l test compound PBS/DMSO solution was administered intra-cerebroventricularly at different time points after the induction of transient focal cerebral ischemia. If not otherwise stated, all other chemicals were of highest available purity.
The procedure for the induction of transient focal cerebral ischemia by occlusion of the middle cerebral artery via microinjection of endothelin 1 adjacent to the middle cerebral artery was modified from that published previously by Sharkey and Butcher, 1995. Anesthesia was induced with halothane in a mixture of nitrous oxide/oxygen (70:30, v/v) and maintained with 2 to 3% halothane during the following procedures. Rats were placed in a Kopf stereotaxic frame and further anesthetized via nose cone. For the induction of focal cerebral ischemia, a burr hole was drilled (1 mm diameter) into the skull (coordinates: anterior 0.90 mm from bregma, lateral 5.2 mm to satura sagittalis), and the dura was carefully opened. A 29-gauge cannula was lowered 7.5 mm below the dura according to the rat brain atlas of Paxinos and Watson (31). To induce occlusion of the middle cerebral artery, rats received an injection of […] of endothelin 1 (ED-1, Sigma-Aldrich) in 3 μl of 0.1 M phosphate-buffered saline, pH 7.4, over a time period of 5 min. After a further 5 min, the cannula was slowly withdrawn.
For intracerebroventricular application of the compounds selected, a second burr hole was drilled into the skull (coordinates: posterior 0.80 mm from bregma, lateral 1.5 mm to satura sagittalis), and a second 29-gauge cannula was lowered 4.5 mm below the dura. Intracerebroventricular applications of selected compounds (2 μl of a 10 mmol/l PBS/DMSO solution, pH 7.4) were performed during ischemia, 6 and 24 h after reperfusion.
After a survival time of 7 days after endothelin-induced middle cerebral artery occusion (eMCAO), animals were anesthetized by an intraperitonial injection of pentobarbital and perfusion-fixed transcardially with saline, followed by 4% paraformaldehyde in 0.1 M phosphate buffer saline, pH 7.4. Brains were then removed carefully, post-fixed in the same fixative for 2 h, and placed in a rodent brain matrix (rat, Activational Systems Inc., Scientific Instrumentation). 1-mm coronal brain slices were cut with a razor blade at 14 predetermined anterior-posterior levels. After cryoprotection in 30% sucrose, slices were rapidly frozen in isopentane and stored at −80° C. Four to five cryostat sections (30 μm) from each brain slice were cut in a cryo microtome and stained with toluidine blue.
The extent of cortical damage following ischemic injury was documented with microphotographic images from the Nissl-stained slices showing the anterior-posterior level according to the brain atlas of Paxinos and Watson (31). The volume of cortical infarct was determined by an operator blinded to the group composition.
The extent of the infarct area at each level was calculated by integrating of the area of damage at each stereotactic level and the distances between the various levels. Using a light microscope (Nikon, Eclipse TE 3000) equipped with a 4× objective, the image analysis was performed with a computer-assisted image analysis system (Lucia software, Version 4.2.1).
The data were statistically analyzed by non-paired Student's t tests. […]

The structures appear in SMILES notation.

Consider `CCCCCCCCCCCCCCCCNC(CC(=O)NCC(C)(C)CNC(=O)C(O)C(Cc1ccccc1)NCCCCCCCCCCCCCCCC)Cc1cc(F)ccc1F` (centres unmarked) [drawing 272], for which the IC50 in assay [1] came out at 10 µM; in the assay on T lymphocytes, 11 µM.
Consider `NC(CC(=O)NCC1(CNC(=O)C(O)C(N)Cc2ccccc2)CCCCC1)Cc1cc(F)ccc1F` (centres unmarked) [drawing 273], for which the values for the IC50 (in assay [1]; in the assay with T lymphocytes) were 7.4 µM and 7 µM, respectively.
On to `NC(CC(=O)NCC1(CNC(=O)C(O)C(N)Cc2ccccc2)CCCC1)Cc1cc(F)ccc1F` (centres unmarked) [drawing 274], for which the half-maximal inhibitory concentration (IC50) in assay [1] came to 16.2 µM; with T lymphocytes, 12.9 µM.
`CC(C)(CNC(=O)CC(N)Cc1cc(F)ccc1F)CNC(=O)C1OC(=O)NC1Cc1ccc(-c2ccccc2)cc1` (centres unmarked) [drawing 275]: the values for the IC50 (in assay [1]; with T lymphocytes) were 200 µM and 139 µM, respectively.
Consider `CC(C)(CNCC(N)Cc1cc(F)ccc1F)CNC(=O)C(O)C(N)Cc1ccccc1` (centres unmarked) [drawing 276], for which the IC50 stood at 30.6 µM in assay [1] and 30.3 µM in the assay on T lymphocytes.
On to `NC(CNC(=O)c1cccc(NC(=O)C(O)C(N)Cc2ccccc2)c1)Cc1cc(F)ccc1F` (centres unmarked) [drawing 277], for which the IC50 turned out to be 27.2 µM in assay [1] and 21.4 µM with T lymphocytes.
Taken in the same sequence, the figures for `CN(CCCNC(=O)OCc1ccccc1)C(=O)C(O)C(N)Cc1ccccc1` (centres unmarked) [drawing 278] were 149 µM and ≥ 200 µM.
Regarding `CC(C)(CNC(=O)CC(N)Cc1cc(F)ccc1F)CNC(=O)C(O)C(N)Cc1ccc(O)cc1` (centres unmarked) [drawing 279], the IC50 in assay [1] came out at 43.2 µM; with T lymphocytes it was 37.6 µM.
The corresponding values for `CC(C)(CNC(=O)CC(N)Cc1cc(F)ccc1F)CNC(=O)C(O)C(N)Cc1ccc(-c2ccsc2)cc1` (centres unmarked) [drawing 280] are 4.6 µM and 6.3 µM.
In the case of `CC(C)(CNC(=O)CC(N)Cc1cc(F)ccc1F)CNC(=O)C(O)C(N)Cc1ccc(-c2ccccc2)cc1` (centres unmarked) [drawing 281], the IC50 in assay [1] stood at 119 µM; in the assay with T lymphocytes it was 98.5 µM.
The corresponding values for `CC(C)(CNC(=O)CC(N)Cc1cc(F)ccc1F)CNC(=O)C(O)C(N)Cc1ccc(-c2cccnc2)cc1` (centres unmarked) [drawing 282] are 31.4 µM and 64.9 µM.
For the compound `CC(C)(CNC(=O)CC(N)Cc1cc(F)ccc1F)CNC(=O)C(O)C(N)Cc1ccc(-c2cncnc2)cc1` (centres unmarked) [drawing 283], the IC50 in assay [1] turned out to be 70 µM; in the assay on T lymphocytes, 96.1 µM.
`NC(CNC(=O)c1cccc(NC(=O)C(O)C(N)Cc2ccc(-c3ccsc3)cc2)c1)Cc1cc(F)ccc1F` (centres unmarked) [drawing 284]: the values for the IC50 (in assay [1]; in the assay with T lymphocytes) were 4.7 µM and 3.9 µM, respectively.
For `NC(CNC(=O)c1cccc(NC(=O)C(O)C(N)Cc2ccc(-c3cccnc3)cc2)c1)Cc1cc(F)ccc1F` (centres unmarked) [drawing 285], the 50% inhibitory concentration (IC50) in assay [1] stood at 37.8 µM; in the assay on T lymphocytes it was 24.3 µM.
As for `CC(C)(NC(=O)CC(N)Cc1ccccc1)C(C)(C)NC(=O)C(O)C(N)Cc1ccccc1` (centres unmarked) [drawing 286], the “Infarct Volume (%)” value with Sprague-Dawley rats turned out to be 70.7 ± 6.1 %.
`NC(CC(=O)NCCCCNC(=O)C(O)C(N)Cc1ccccc1)Cc1cc(F)ccc1F` (centres unmarked) [drawing 287]: the “Infarct Volume (%)” value in the assay on Sprague-Dawley rats was 73.5 ± 5.7 %.
`CCCCCCCCCCCCCCCC(=O)OC(C(=O)NCC(C)(C)CNC(=O)CC(N)Cc1cc(F)ccc1F)C(N)Cc1ccccc1` (centres unmarked) [drawing 288]: in the assay on Sprague-Dawley rats, the “Infarct Volume (%)” value amounted to 58.6 ± 19.7 %.
For `CCCCCCCCCCCCCC(=O)NC(CC(=O)NCC(C)(C)CNC(=O)C(O)C(Cc1ccccc1)NC(=O)CCCCCCCCCCCCC)Cc1cc(F)ccc1F` (centres unmarked) [drawing 289], the “Infarct Volume (%)” value in the assay with Sprague-Dawley rats was 60.7 ± 17.1 %.
In the case of `CCCCCCCCCCCCCCCC(=O)NC(CC(=O)NCC(C)(C)CNC(=O)C(O)C(Cc1ccccc1)NC(=O)CCCCCCCCCCCCCCC)Cc1cc(F)ccc1F` (centres unmarked) [drawing 290], the “Infarct Volume (%)” value in the assay with Sprague-Dawley rats came to 75.6 ± 16.6%.
The same measure, in the same setting: under `NC(CC(=O)NC1CCCC(NC(=O)C(O)C(N)Cc2ccccc2)C1)Cc1cc(F)ccc1F` (centres unmarked) [drawing 291] stands 64.2 ± 14.6 %.
Still for that read-out and setting: next, `CC(C)(CNCC(N)Cc1cc(F)ccc1F)CNC(=O)C(O)C(N)Cc1ccccc1` (centres unmarked) [drawing 292]: 59.9 ± 16.1 %.

What is called IC50 is the concentration at which inhibition is half-maximal.
